Three molecules from ChEMBL document CHEMBL4184286, “Discovery of morpholine-based aryl sulfonamides as Nav1.7 inhibitors” (Bioorg Med Chem Lett, 2018) can be followed below.

In assay [1] the target is T1, Sodium channel protein type 9 subunit alpha (Homo sapiens, UniProt Q15858). Kind of assay: Antagonist activity at recombinant human Nav1.7 expressed in HEK293 cells assessed as reduction in peak inward current at -65 mV holding potential by patch clamp electrophysiology. The assay is classed as cell-based.
Target sequence in this assay (Q15858 whole entry): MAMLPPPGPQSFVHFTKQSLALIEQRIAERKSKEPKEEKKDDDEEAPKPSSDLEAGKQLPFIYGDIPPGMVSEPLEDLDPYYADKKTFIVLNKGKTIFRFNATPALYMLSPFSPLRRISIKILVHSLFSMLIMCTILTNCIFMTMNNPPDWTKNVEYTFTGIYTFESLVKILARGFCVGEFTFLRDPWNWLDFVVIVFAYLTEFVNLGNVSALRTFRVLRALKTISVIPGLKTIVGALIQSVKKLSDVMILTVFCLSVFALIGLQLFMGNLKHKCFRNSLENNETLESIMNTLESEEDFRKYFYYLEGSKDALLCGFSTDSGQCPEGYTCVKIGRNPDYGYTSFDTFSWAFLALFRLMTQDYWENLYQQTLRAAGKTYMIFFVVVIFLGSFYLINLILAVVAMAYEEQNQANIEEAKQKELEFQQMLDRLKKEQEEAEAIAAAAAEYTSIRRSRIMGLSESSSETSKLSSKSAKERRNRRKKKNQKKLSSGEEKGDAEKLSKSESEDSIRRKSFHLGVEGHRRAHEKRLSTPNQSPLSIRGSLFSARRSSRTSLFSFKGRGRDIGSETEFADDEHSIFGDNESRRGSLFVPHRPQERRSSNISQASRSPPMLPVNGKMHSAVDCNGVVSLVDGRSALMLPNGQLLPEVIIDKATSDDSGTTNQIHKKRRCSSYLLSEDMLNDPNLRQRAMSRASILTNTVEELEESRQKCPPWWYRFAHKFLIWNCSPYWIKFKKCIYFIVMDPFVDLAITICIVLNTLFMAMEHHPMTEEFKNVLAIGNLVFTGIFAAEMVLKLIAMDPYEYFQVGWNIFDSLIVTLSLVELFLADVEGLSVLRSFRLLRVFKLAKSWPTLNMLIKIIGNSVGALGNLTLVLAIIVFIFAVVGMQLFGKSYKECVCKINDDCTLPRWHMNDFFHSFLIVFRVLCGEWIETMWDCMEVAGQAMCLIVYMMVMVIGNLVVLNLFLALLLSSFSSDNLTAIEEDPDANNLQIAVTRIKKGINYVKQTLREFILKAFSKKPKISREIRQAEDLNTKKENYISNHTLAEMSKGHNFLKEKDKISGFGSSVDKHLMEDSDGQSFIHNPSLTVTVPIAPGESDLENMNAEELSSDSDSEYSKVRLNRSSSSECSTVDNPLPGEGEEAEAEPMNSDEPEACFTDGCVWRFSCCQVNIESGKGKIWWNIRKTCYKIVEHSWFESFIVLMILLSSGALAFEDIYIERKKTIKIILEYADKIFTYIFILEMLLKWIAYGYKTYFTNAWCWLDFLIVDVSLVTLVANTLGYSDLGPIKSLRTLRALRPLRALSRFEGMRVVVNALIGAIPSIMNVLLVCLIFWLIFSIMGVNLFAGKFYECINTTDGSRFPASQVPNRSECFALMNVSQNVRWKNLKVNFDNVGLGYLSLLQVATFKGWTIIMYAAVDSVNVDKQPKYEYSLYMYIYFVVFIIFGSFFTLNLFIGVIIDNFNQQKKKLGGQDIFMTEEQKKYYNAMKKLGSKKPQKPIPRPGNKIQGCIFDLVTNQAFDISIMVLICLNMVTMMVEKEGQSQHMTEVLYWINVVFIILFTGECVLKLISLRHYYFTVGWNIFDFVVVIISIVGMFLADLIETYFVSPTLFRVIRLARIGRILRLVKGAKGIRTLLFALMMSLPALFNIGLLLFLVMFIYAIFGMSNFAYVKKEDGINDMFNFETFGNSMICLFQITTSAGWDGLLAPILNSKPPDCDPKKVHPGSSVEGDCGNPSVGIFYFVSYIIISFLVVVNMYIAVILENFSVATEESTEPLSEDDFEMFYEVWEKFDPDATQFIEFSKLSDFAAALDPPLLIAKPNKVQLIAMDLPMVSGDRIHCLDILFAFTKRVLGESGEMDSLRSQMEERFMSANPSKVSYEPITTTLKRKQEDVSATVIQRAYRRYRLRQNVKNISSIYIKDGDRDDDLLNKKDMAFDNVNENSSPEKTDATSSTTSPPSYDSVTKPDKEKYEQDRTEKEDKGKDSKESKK
Assay [2] addresses T1, Sodium channel protein type 9 subunit alpha. Kind of assay: Antagonist activity at recombinant human Nav1.7 expressed in HEK293 cells assessed as reduction in peak inward current at 1 uM at -120 mV holding potential by patch clamp electrophysiology. The assay is classed as cell-based.
Target sequence in this assay (Q15858 whole entry, looked up): as the sequence (Q15858 whole entry) above
Assay [3] addresses Sodium channel protein type 2 subunit alpha (Homo sapiens, UniProt Q99250). In words: Antagonist activity at recombinant human Nav1.2 assessed as reduction in channel current by barracuda automated electrophysiology method.
Assay [4] concerns the target T1, Sodium channel protein type 9 subunit alpha. Kind of assay: Antagonist activity at recombinant human Nav1.7 expressed in HEK293 cells assessed as reduction in channel current at -60 mV holding potential after 600 secs by barracuda automated electrophysiology method. It is filed as cell-based.
Target sequence in this assay (Q15858 whole entry): as above
Assay [5] has the same target. In words: Antagonist activity at recombinant human Nav1.7 expressed in HEK293 cells assessed as reduction in peak inward current at 100 nM at -120 mV holding potential by patch clamp electrophysiology. It is filed as cell-based.
Target sequence in this assay (Q15858 whole entry, looked up): as the sequence (Q15858 whole entry) above
In assay [6] the target is Sodium channel protein type 8 subunit alpha (Homo sapiens, UniProt Q9UQD0). Kind of assay: Antagonist activity at recombinant human Nav1.6 assessed as reduction in channel current by barracuda automated electrophysiology method.
The target in assay [7] is Sodium channel protein type 5 subunit alpha (Homo sapiens, UniProt Q14524). In words: Antagonist activity at recombinant human Nav1.5 expressed in HEK293 cells assessed as reduction in channel current at -50 mV holding potential after 600 secs by barracuda automated electrophysiology method. It is filed as ADME, cell-based.
Sequence of Sodium channel protein type 5 subunit alpha (Q14524 whole entry): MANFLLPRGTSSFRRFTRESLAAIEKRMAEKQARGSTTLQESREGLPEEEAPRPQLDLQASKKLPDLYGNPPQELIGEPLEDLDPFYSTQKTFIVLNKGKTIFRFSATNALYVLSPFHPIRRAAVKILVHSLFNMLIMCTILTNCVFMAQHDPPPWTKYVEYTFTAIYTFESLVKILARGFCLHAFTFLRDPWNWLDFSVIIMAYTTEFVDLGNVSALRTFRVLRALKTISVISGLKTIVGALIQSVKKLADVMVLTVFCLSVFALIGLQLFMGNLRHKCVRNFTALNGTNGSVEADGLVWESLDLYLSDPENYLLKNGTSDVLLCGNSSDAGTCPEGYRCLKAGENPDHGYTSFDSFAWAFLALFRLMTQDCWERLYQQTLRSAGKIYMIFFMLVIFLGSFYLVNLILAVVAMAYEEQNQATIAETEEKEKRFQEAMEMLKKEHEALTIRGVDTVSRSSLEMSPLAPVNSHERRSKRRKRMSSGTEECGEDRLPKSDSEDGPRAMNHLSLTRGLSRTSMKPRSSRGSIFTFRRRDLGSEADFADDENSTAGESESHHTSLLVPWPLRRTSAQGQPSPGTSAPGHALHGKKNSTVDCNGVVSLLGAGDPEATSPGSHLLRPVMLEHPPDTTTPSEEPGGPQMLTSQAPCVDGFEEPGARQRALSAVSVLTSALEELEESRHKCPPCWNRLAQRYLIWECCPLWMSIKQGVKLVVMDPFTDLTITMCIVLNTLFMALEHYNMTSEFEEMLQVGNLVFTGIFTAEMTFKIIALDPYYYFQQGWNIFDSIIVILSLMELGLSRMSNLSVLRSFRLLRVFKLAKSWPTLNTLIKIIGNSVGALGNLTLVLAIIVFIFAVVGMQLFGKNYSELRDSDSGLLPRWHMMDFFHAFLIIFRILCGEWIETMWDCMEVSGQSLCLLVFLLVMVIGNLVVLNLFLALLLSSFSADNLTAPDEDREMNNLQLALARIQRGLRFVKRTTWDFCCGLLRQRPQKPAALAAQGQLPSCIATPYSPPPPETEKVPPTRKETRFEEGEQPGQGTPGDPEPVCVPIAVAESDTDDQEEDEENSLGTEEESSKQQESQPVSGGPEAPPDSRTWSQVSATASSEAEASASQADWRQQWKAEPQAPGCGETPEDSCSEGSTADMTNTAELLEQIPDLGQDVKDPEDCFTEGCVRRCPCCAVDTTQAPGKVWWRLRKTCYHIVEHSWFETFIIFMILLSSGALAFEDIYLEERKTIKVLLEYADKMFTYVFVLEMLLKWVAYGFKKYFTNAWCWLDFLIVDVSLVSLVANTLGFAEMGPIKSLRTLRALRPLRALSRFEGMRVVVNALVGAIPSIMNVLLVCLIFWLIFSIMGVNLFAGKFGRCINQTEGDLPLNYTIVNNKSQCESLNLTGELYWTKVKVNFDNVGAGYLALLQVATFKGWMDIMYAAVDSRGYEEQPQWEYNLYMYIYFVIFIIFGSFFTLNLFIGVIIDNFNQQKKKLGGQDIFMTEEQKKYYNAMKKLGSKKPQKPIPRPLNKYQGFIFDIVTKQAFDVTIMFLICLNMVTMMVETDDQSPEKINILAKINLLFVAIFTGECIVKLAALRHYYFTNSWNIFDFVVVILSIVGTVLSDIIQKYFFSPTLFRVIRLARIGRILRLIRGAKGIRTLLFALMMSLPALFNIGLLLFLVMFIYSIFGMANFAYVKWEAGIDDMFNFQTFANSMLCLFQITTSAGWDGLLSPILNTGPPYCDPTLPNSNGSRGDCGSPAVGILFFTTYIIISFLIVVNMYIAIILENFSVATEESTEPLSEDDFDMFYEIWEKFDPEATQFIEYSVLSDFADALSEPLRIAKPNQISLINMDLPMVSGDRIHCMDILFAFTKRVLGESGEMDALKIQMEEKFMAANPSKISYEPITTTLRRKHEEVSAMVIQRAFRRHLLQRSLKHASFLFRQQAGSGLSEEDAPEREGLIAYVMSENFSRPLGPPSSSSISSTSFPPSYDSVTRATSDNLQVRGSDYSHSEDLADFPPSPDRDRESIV

In general, IC50 refers to the concentration that gives 50% inhibition. As a reminder, the inhibition is the change of the read-out against control, counted positive when it falls. Turning to `CC1(C)CN[C@H](c2cc(Cl)cc(Cl)c2)[C@@H](Oc2cc(F)c(S(=O)(=O)Nc3ncns3)cc2F)O1`, the IC50 in assay [1] is 11 nM; in assay [3], 1500 nM; in assay [4], 41 nM; in assay [6], 1600 nM; in assay [7], 6000 nM. Moreover, the values for the inhibition in assay [2] and in assay [5] were 48% and 8%, respectively.

With `O=S(=O)(Nc1ncns1)c1cc(F)c(OC2OCCNC2c2cccc(C(F)(F)F)c2)cc1F` (single isomer, unassigned; isomer B), the results for the IC50 in assay [4] and in assay [7] were 570 nM and 4800 nM, respectively.

In the case of `Cn1nccc1C1NCCOC1Oc1cc(F)c(S(=O)(=O)Nc2ncns2)cc1F` (stereo in doubt; 55), the IC50 in assay [4] is 1800 nM; in assay [7] it was > 30000 nM.
